# Measurements as given in PMC12608329, “Inhibition of α-Glucosidase Activity and Islet Amyloid PolyPeptide Fibril Formation by Rubus ulmifolius Fruit Extract: A Potential Therapeutic Approach for Type 2 Diabetes Mellitus” (Plants, 2025).
# Legend:
# IAPP = tested on: IAPP; set-up: method as in PMID 40305223; conditions: cited from earlier work
# [1] = ABTS radical scavenging activity; conditions: mean ± SD, three independent assays
# Description: [50]. A volume of 10 μL of the extract was mixed with 1 mL of ABTS+ solution previously diluted to reach an absorbance of approximately 0.70 ± 0.05 (mean ± SD). After 1 min of incubation, the absorbance was recorded at 734 nm. Trolox (6-hydroxy-2,5,7,8-tetramethylchroman-2-carboxylic acid) was employed as the reference antioxidant. Results were expressed as the effective concentration required to achieve 50% reduction of the initial absorbance (EC50).
# [2] = tested on: human islets exposed to amylin; set-up: method as in PMID 34614009; conditions: cited from earlier work
molecule,measurement,setting,value
COc1cc(/C=C/C(=O)CC(=O)/C=C/c2ccc(O)c(OC)c2)ccc1O [curcumin],IAPP aggregation,IAPP,reduce IAPP aggregation
epigallocatechin 3-gallate,IAPP aggregation,IAPP,reduce IAPP aggregation
"Cc1c(C)c2c(c(C)c1O)CCC(C)(C(=O)O)O2 (centres unmarked) [Trolox, 6-hydroxy-2,5,7,8-tetramethylchroman-2-carboxylic acid]",ABTS EC50,[1],3.4 ± 0.3 µg/mL
"OC[C@H]1O[C@@H](Oc2cc3c(O)cc(O)cc3[o+]c2-c2ccc(O)c(O)c2)[C@H](O)[C@@H](O)[C@@H]1O [cyanidin 3-O-glucoside, cyanidin-3-O-glucoside]",amyloid formation in human islets exposed to amylin,[2],inhibit amyloid formation
same,cell viability of human islets exposed to amylin,[2],increase cell viability
